{"source": "PubChem BioAssay AID2060894", "about": "(Molecular Pharmacology Branch, DTP, NCI, 2025);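 further: spheroids exposed to agents for one week before readout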;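 on viability, T/C: tumour cells co-cultured with HUVEC and mesenchymal stem cells in spheroids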", "system": "K12877-001-R-J1-PDC complex spheroid viability", "experiment": "Anticancer human tumor K12877-001-R-J1-PDC patient-derived lung adenocarcinoma cell line growth inhibition [RAS]", "conditions": "for IC50: curve of first compound; for viability, T/C: stronger effect = lower value", "procedure,_shortened": "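Agents were tested in combination matrices in half-log decrements from a top concentration at or near clinical Cmax (10 microM if undetermined). Targets were multi-cell spheroids of tumour lines plus HUVEC and MSC stromal cells.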", "key": {"[1]": {"conditions": "second compound 0.000949 µM, first compound 0.00316 µM"}, "[2]": {"conditions": "second compound 0.000949 µM, first compound 0.01 µM"}, "[3]": {"conditions": "second compound 0.000949 µM, first compound 0.0316 µM"}, "[4]": {"conditions": "second compound 0.000949 µM, first compound 0.1 µM"}, "[5]": {"conditions": "second compound 0.000949 µM, first compound 0.316 µM"}, "[6]": {"conditions": "second compound 0.000949 µM, first compound 1 µM"}, "[7]": {"conditions": "second compound 0.003 µM, first compound 0.00316 µM"}, "[8]": {"conditions": "second compound 0.003 µM, first compound 0.01 µM"}, "[9]": {"conditions": "second compound 0.003 µM, first compound 0.0316 µM"}, "[10]": {"conditions": "second compound 0.003 µM, first compound 0.1 µM"}, "[11]": {"conditions": "second compound 0.003 µM, first compound 0.316 µM"}, "[12]": {"conditions": "second compound 0.003 µM, first compound 1 µM"}, "[13]": {"conditions": "second compound 0.00949 µM, first compound 0.00316 µM"}, "[14]": {"conditions": "second compound 0.00949 µM, first compound 0.01 µM"}, "[15]": {"conditions": "second compound 0.00949 µM, first compound 0.0316 µM"}, "[16]": {"conditions": "second compound 0.00949 µM, first compound 0.1 µM"}, "[17]": {"conditions": "second compound 0.00949 µM, first compound 0.316 µM"}, "[18]": {"conditions": "second compound 0.00949 µM, first compound 1 µM"}, "[19]": {"conditions": "second compound 0.03 µM, first compound 0.00316 µM"}, "[20]": {"conditions": "second compound 0.03 µM, first compound 0.01 µM"}, "[21]": {"conditions": "second compound 0.03 µM, first compound 0.0316 µM"}, "[22]": {"conditions": "second compound 0.03 µM, first compound 0.1 µM"}, "[23]": {"conditions": "second compound 0.03 µM, first compound 0.316 µM"}, "[24]": {"conditions": "second compound 0.03 µM, first compound 1 µM"}, "[25]": {"conditions": "second compound 0.0949 µM, first compound 0.00316 µM"}, "[26]": {"conditions": "second compound 0.0949 µM, first compound 0.01 µM"}, "[27]": {"conditions": "second compound 0.0949 µM, first compound 0.0316 µM"}, "[28]": {"conditions": "second compound 0.0949 µM, first compound 0.1 µM"}, "[29]": {"conditions": "second compound 0.0949 µM, first compound 0.316 µM"}, "[30]": {"conditions": "second compound 0.0949 µM, first compound 1 µM"}, "[31]": {"conditions": "second compound 0.3 µM, first compound 0.00316 µM"}, "[32]": {"conditions": "second compound 0.3 µM, first compound 0.01 µM"}, "[33]": {"conditions": "second compound 0.3 µM, first compound 0.0316 µM"}, "[34]": {"conditions": "second compound 0.3 µM, first compound 0.1 µM"}, "[35]": {"conditions": "second compound 0.3 µM, first compound 0.316 µM"}, "[36]": {"conditions": "second compound 0.3 µM, first compound 1 µM"}}, "data": [{"smiles": "C=CC(=O)Nc1cc(Nc2nccc(-c3cn(C)c4ccccc34)n2)c(OC)cc1N(C)CCN(C)C", "note": "+ CCn1c(-c2cc(N3CCN(C)CC3)cnc2C(C)OC)c2c3cc(ccc31)-c1csc(n1)CC(NC(=O)C1CC1C)C(=O)N1CCCC(N1)C(=O)OCC(C)(C)C2", "values": [{"measurement": "IC50", "setting": "second compound 0.000949 µM", "result": "> 1000", "unit": "nM"}, {"measurement": "IC50", "setting": "second compound 0.003 µM", "result": "> 1000", "unit": "nM"}, {"measurement": "IC50", "setting": "second compound 0.00949 µM", "result": "> 1000", "unit": "nM"}, {"measurement": "IC50", "setting": "second compound 0.03 µM", "result": "> 1000", "unit": "nM"}, {"measurement": "IC50", "setting": "second compound 0.0949 µM", "result": "> 1000", "unit": "nM"}, {"measurement": "IC50", "setting": "second compound 0.3 µM", "result": "> 1000", "unit": "nM"}, {"measurement": "viability, T/C", "setting": "[1]", "result": 90.8, "unit": "%"}, {"measurement": "viability, T/C", "setting": "[2]", "result": 69.3, "unit": "%"}, {"measurement": "viability, T/C", "setting": "[3]", "result": 83.4, "unit": "%"}, {"measurement": "viability, T/C", "setting": "[4]", "result": 78.9, "unit": "%"}, {"measurement": "viability, T/C", "setting": "[5]", "result": 82.4, "unit": "%"}, {"measurement": "viability, T/C", "setting": "[6]", "result": 71.3, "unit": "%"}, {"measurement": "viability, T/C", "setting": "[7]", "result": 73.7, "unit": "%"}, {"measurement": "viability, T/C", "setting": "[8]", "result": 70.3, "unit": "%"}, {"measurement": "viability, T/C", "setting": "[9]", "result": 66.1, "unit": "%"}, {"measurement": "viability, T/C", "setting": "[10]", "result": 74.4, "unit": "%"}, {"measurement": "viability, T/C", "setting": "[11]", "result": 74.9, "unit": "%"}, {"measurement": "viability, T/C", "setting": "[12]", "result": 72, "unit": "%"}, {"measurement": "viability, T/C", "setting": "[13]", "result": 82.9, "unit": "%"}, {"measurement": "viability, T/C", "setting": "[14]", "result": 71.4, "unit": "%"}, {"measurement": "viability, T/C", "setting": "[15]", "result": 69, "unit": "%"}, {"measurement": "viability, T/C", "setting": "[16]", "result": 69.6, "unit": "%"}, {"measurement": "viability, T/C", "setting": "[17]", "result": 63, "unit": "%"}, {"measurement": "viability, T/C", "setting": "[18]", "result": 73, "unit": "%"}, {"measurement": "viability, T/C", "setting": "[19]", "result": 89.3, "unit": "%"}, {"measurement": "viability, T/C", "setting": "[20]", "result": 83.2, "unit": "%"}, {"measurement": "viability, T/C", "setting": "[21]", "result": 80.4, "unit": "%"}, {"measurement": "viability, T/C", "setting": "[22]", "result": 75.9, "unit": "%"}, {"measurement": "viability, T/C", "setting": "[23]", "result": 90.2, "unit": "%"}, {"measurement": "viability, T/C", "setting": "[24]", "result": 93.1, "unit": "%"}, {"measurement": "viability, T/C", "setting": "[25]", "result": 106, "unit": "%"}, {"measurement": "viability, T/C", "setting": "[26]", "result": 104, "unit": "%"}, {"measurement": "viability, T/C", "setting": "[27]", "result": 125, "unit": "%"}, {"measurement": "viability, T/C", "setting": "[28]", "result": 97.7, "unit": "%"}, {"measurement": "viability, T/C", "setting": "[29]", "result": 87.7, "unit": "%"}, {"measurement": "viability, T/C", "setting": "[30]", "result": 84.7, "unit": "%"}, {"measurement": "viability, T/C", "setting": "[31]", "result": 90, "unit": "%"}, {"measurement": "viability, T/C", "setting": "[32]", "result": 96.1, "unit": "%"}, {"measurement": "viability, T/C", "setting": "[33]", "result": 93, "unit": "%"}, {"measurement": "viability, T/C", "setting": "[34]", "result": 89.8, "unit": "%"}, {"measurement": "viability, T/C", "setting": "[35]", "result": 82.5, "unit": "%"}, {"measurement": "viability, T/C", "setting": "[36]", "result": 73.7, "unit": "%"}]}, {"smiles": "CCN1CCN(Cc2ccc(Nc3ncc(F)c(-c4cc(F)c5nc(C)n(C(C)C)c5c4)n3)nc2)CC1", "note": "+ CCn1c(-c2cc(N3CCN(C)CC3)cnc2C(C)OC)c2c3cc(ccc31)-c1csc(n1)CC(NC(=O)C1CC1C)C(=O)N1CCCC(N1)C(=O)OCC(C)(C)C2", "values": [{"measurement": "IC50", "setting": "second compound 0.000949 µM", "result": "> 1000", "unit": "nM"}, {"measurement": "IC50", "setting": "second compound 0.003 µM", "result": 803, "unit": "nM"}, {"measurement": "IC50", "setting": "second compound 0.00949 µM", "result": 578, "unit": "nM"}, {"measurement": "IC50", "setting": "second compound 0.03 µM", "result": 469, "unit": "nM"}, {"measurement": "IC50", "setting": "second compound 0.0949 µM", "result": 516, "unit": "nM"}, {"measurement": "IC50", "setting": "second compound 0.3 µM", "result": 376, "unit": "nM"}, {"measurement": "viability, T/C", "setting": "[1]", "result": 79.9, "unit": "%"}, {"measurement": "viability, T/C", "setting": "[2]", "result": 84.1, "unit": "%"}, {"measurement": "viability, T/C", "setting": "[3]", "result": 85, "unit": "%"}, {"measurement": "viability, T/C", "setting": "[4]", "result": 92.5, "unit": "%"}, {"measurement": "viability, T/C", "setting": "[5]", "result": 86.8, "unit": "%"}, {"measurement": "viability, T/C", "setting": "[6]", "result": 73.2, "unit": "%"}, {"measurement": "viability, T/C", "setting": "[7]", "result": 73.7, "unit": "%"}, {"measurement": "viability, T/C", "setting": "[8]", "result": 72.1, "unit": "%"}, {"measurement": "viability, T/C", "setting": "[9]", "result": 72.7, "unit": "%"}, {"measurement": "viability, T/C", "setting": "[10]", "result": 69.3, "unit": "%"}, {"measurement": "viability, T/C", "setting": "[11]", "result": 70.2, "unit": "%"}, {"measurement": "viability, T/C", "setting": "[12]", "result": 45.3, "unit": "%"}, {"measurement": "viability, T/C", "setting": "[13]", "result": 61.7, "unit": "%"}, {"measurement": "viability, T/C", "setting": "[14]", "result": 61.3, "unit": "%"}, {"measurement": "viability, T/C", "setting": "[15]", "result": 68.9, "unit": "%"}, {"measurement": "viability, T/C", "setting": "[16]", "result": 70.8, "unit": "%"}, {"measurement": "viability, T/C", "setting": "[17]", "result": 72, "unit": "%"}, {"measurement": "viability, T/C", "setting": "[18]", "result": 34.6, "unit": "%"}, {"measurement": "viability, T/C", "setting": "[19]", "result": 81.7, "unit": "%"}, {"measurement": "viability, T/C", "setting": "[20]", "result": 86.8, "unit": "%"}, {"measurement": "viability, T/C", "setting": "[21]", "result": 74.3, "unit": "%"}, {"measurement": "viability, T/C", "setting": "[22]", "result": 89.8, "unit": "%"}, {"measurement": "viability, T/C", "setting": "[23]", "result": 61.5, "unit": "%"}, {"measurement": "viability, T/C", "setting": "[24]", "result": 28.1, "unit": "%"}, {"measurement": "viability, T/C", "setting": "[25]", "result": 106, "unit": "%"}, {"measurement": "viability, T/C", "setting": "[26]", "result": 97.9, "unit": "%"}, {"measurement": "viability, T/C", "setting": "[27]", "result": 99.6, "unit": "%"}, {"measurement": "viability, T/C", "setting": "[28]", "result": 86.5, "unit": "%"}, {"measurement": "viability, T/C", "setting": "[29]", "result": 63, "unit": "%"}, {"measurement": "viability, T/C", "setting": "[30]", "result": 32.3, "unit": "%"}, {"measurement": "viability, T/C", "setting": "[31]", "result": 97, "unit": "%"}, {"measurement": "viability, T/C", "setting": "[32]", "result": 86.2, "unit": "%"}, {"measurement": "viability, T/C", "setting": "[33]", "result": 86.5, "unit": "%"}, {"measurement": "viability, T/C", "setting": "[34]", "result": 76.2, "unit": "%"}, {"measurement": "viability, T/C", "setting": "[35]", "result": 53.1, "unit": "%"}, {"measurement": "viability, T/C", "setting": "[36]", "result": 26.1, "unit": "%"}]}]}
